# Results: patent publication US4178436A, “Semi-synthetic oleandomycin derivatives-C8 modifications” (Pfizer Inc., priority 1978, dated 1979)
# How the values were obtained:
# Klebsiella pn. 53A009 = test: in vitro minimum inhibitory concentration (MIC) method of Ericsson and Sherris; type: cell-based; conditions: Klebsiella pn. 53A009, Gram-negative
# Excerpt: (§1) The oleandomycin compounds of the present invention are effective in inhibiting the growth of microorganisms, especially Gram-positive microorganisms. That is, the high activity against Gram-positive organisms in general shown by these compounds can be contrasted in some respects with the lower activity show against certain especially virulent and well known Gram-negative organisms. The following table illustrates the in vitro antibiotic spectrum of the compound of the instant invention. The tests were run according to the "minimum inhibitory concentration" (MIC) method of Ericsson and Sherris [H. M. Ericsson and J. C. Sherris, Acta. Pathol. Microbiol. Scand. Suppl., 217B, 64 (1971)].
# E.coli 51A226 = test: as above; type: cell-based; conditions: Escherichia coli; E.coli 51A226, Gram-negative
# Excerpt: as §1
# Salm.typhm. 58D009 = test: as above; type: cell-based; conditions: Salm.typhm. 58D009, Gram-negative
# Excerpt: as §1
# Strep.py 02C203 = test: as above; type: cell-based; conditions: Strep.py 02C203, Gram-positive
# Excerpt: as §1
# Neisseriae Sicca 66C001 = test: as above; type: cell-based; conditions: Neisseriae Sicca 66C001, Gram-negative
# Excerpt: as §1
# Staph.aureus 01A005 = test: as above; type: cell-based; conditions: Staphylococcus aureus; Staph.aureus 01A005, Gram-positive
# Excerpt: as §1
# Staph.aureus 01A400R = test: as above; type: cell-based; conditions: Staphylococcus aureus, Gram-positive
# Excerpt: as §1
# Staph. aureus 01A005 = test: protection against in vivo infection in mice infected with Staph. aureus 01A005 (test procedure of Retsema); conditions: subcutaneous or oral administration to mice infected with Staph. aureus 01A005; compared with natural oleandomycin
# Experimental: The ability of some compounds of the present invention to protect against in vivo infections was determined by subcutaneous or oral administration to mice infected with Staph. aureus 01A005. Using the test procedure of Retsema [J. A. Retsema, et al., Antimicr.
Compound,MIC (Klebsiella pn. 53A009) [µg/mL],MIC (E.coli 51A226) [µg/mL],MIC (Salm.typhm. 58D009) [µg/mL],MIC (Strep.py 02C203) [µg/mL],MIC (Neisseriae Sicca 66C001) [µg/mL],MIC (Staph.aureus 01A005) [µg/mL],MIC (Staph.aureus 01A400R) [µg/mL],protection against infection (Staph. aureus 01A005)
"CO[C@H]1C[C@H](O[C@H]2[C@H](C)[C@@H](O[C@@H]3O[C@H](C)C[C@H](N(C)C)[C@H]3O)[C@@H](C)C[C@@H](CNC(C)=O)C(=O)[C@H](C)[C@@H](O)[C@@H](C)[C@@H](C)OC(=O)[C@@H]2C)O[C@@H](C)[C@@H]1OC(C)=O [Example 19, 8,8a-Deoxy-8-(N-acetyl)aminomethyl-4""-acetyloleandomycin]",–,–,–,–,–,–,–,protection against infection which was comparable to natural oleandomycin
"CO[C@H]1C[C@H](O[C@H]2[C@H](C)[C@@H](O[C@@H]3O[C@H](C)C[C@H](N(C)C)[C@H]3OC(C)=O)[C@@H](C)C[C@@H](CO)C(=O)[C@H](C)[C@@H](O)[C@@H](C)[C@@H](C)OC(=O)[C@@H]2C)O[C@@H](C)[C@@H]1O [Example 2, 8,8a-Deoxy-8-hydroxymethyl-2'-acetyloleandomycin]",> 200,> 200,> 200,1.56,0.39,6.25,12.5,protection against infection which was comparable to natural oleandomycin
"CO[C@H]1C[C@H](O[C@H]2[C@H](C)[C@@H](O[C@@H]3O[C@H](C)C[C@H](N(C)C)[C@H]3O)[C@@H](C)C[C@@H](Cn3ccnc3)C(=O)[C@H](C)[C@@H](O)[C@@H](C)[C@@H](C)OC(=O)[C@@H]2C)O[C@@H](C)[C@@H]1OC(C)=O [Example 24, 8,8a-deoxy-8-(imidazol-1-yl)methyl-4""-acetyloleandomycin]",> 200,> 200,> 200,–,≤ 0.1,0.39,6.25,protection against infection which was comparable to natural oleandomycin
"CO[C@H]1C[C@H](O[C@H]2[C@H](C)[C@@H](O[C@@H]3O[C@H](C)C[C@H](N(C)C)[C@H]3OC(C)=O)[C@@H](C)C[C@@H](COS(=O)(=O)c3ccc(C)cc3)C(=O)[C@H](C)[C@@H](O)[C@@H](C)[C@@H](C)OC(=O)[C@@H]2C)O[C@@H](C)[C@@H]1O [Example 5, 8,8a-Deoxy-8-tosyloxymethyl-2'-acetyloleandomycin]",> 200,> 200,> 200,3.12,3.12,100,> 200,–

# More lines, main results first:
MIC (Klebsiella pn. 53A009) [µg/mL],MIC (E.coli 51A226) [µg/mL],MIC (Salm.typhm. 58D009) [µg/mL],MIC (Strep.py 02C203) [µg/mL],MIC (Neisseriae Sicca 66C001) [µg/mL],MIC (Staph.aureus 01A005) [µg/mL],MIC (Staph.aureus 01A400R) [µg/mL],Compound,protection against infection (Staph. aureus 01A005)
> 200,> 200,> 200,3.1,0.2,3.1,12.5,"CO[C@H]1C[C@H](O[C@H]2[C@H](C)[C@@H](O[C@@H]3O[C@H](C)C[C@H](N(C)C)[C@H]3O)[C@@H](C)C[C@@H](CN=[N+]=[N-])C(=O)[C@H](C)[C@@H](O)[C@@H](C)[C@@H](C)OC(=O)[C@@H]2C)O[C@@H](C)[C@@H]1OC(C)=O [Example 9, 8,8a-Deoxy8-azidomethyl-4""-acetyloleandomycin]",protection against infection which was comparable to natural oleandomycin
> 200,> 200,> 200,50,1.56,25,50,"CO[C@H]1C[C@H](O[C@H]2[C@H](C)[C@@H](O[C@@H]3O[C@H](C)C[C@H](N(C)C)[C@H]3O)[C@@H](C)C[C@@H](CN(C)C)C(=O)[C@H](C)[C@@H](O)[C@@H](C)[C@@H](C)OC(=O)[C@@H]2C)O[C@@H](C)[C@@H]1OC(C)=O [Example 14, 8,8a-Deoxy-8-dimethylaminomethyl-4""-acetyloleandomycin]",–
> 200,200,> 200,1.56,≤ 0.1,3.12,50,"CO[C@H]1C[C@H](O[C@H]2[C@H](C)[C@@H](O[C@@H]3O[C@H](C)C[C@H](N(C)C)[C@H]3O)[C@@H](C)C[C@@H](CCl)C(=O)[C@H](C)[C@@H](O)[C@@H](C)[C@@H](C)OC(=O)[C@@H]2C)O[C@@H](C)[C@@H]1OC(C)=O [Example 13, 8,8a-Deoxy-8-chloromethyl-4'-acetyloleandomycin]",protection against infection which was comparable to natural oleandomycin
> 200,> 200,> 200,50,≤ 0.1,6.25,25,"CO[C@H]1C[C@H](O[C@H]2[C@H](C)[C@@H](O[C@@H]3O[C@H](C)C[C@H](N(C)C)[C@H]3O)[C@@H](C)C[C@@H](CN)C(=O)[C@H](C)[C@@H](O)[C@@H](C)[C@@H](C)OC(=O)[C@@H]2C)O[C@@H](C)[C@@H]1OC(C)=O [Example 11, 8,8a-Deoxy-8-aminomethyl-4""-acetyloleandomycin]",–
